Source: patent US11622991B2, “Protocol for treatment of lupus nephritis” (Aurinia Pharmaceuticals Inc., priority 2017, dated 2023)

Tests used:
Assay type in all cases: in vivo, human
lupus nephritis [1] = test: Pharmacodynamic dosing (eGFR-based dose reduction): CR/PR in patients with and without dose reduction
Method: To determine the efficacy of the pharmacodynamic protocol wherein dosage is reduced or stopped according to the presence or absence of indicators of the decrease in eGFR experienced as a side effect, these three groups of patients were assessed after 24 weeks and 48 weeks of treatment with respect to whether treatment was altered according to the invention protocol.
In this study, CR was defined as a composite of UPCR ≤0.5 mg/mg; eGFR >60 mL/min/1.73 m^2 or within 20% of baseline, steroids at ≤10 mg/day and no administration of rescue medication. PR is defined as UPCR reduction of 50% from baseline and no use of rescue medication.

lupus nephritis [2] = test: Predictability of week 48 partial remission from early C3 normalization (Table 10)
Source text: (§1) PR is defined as at least 50% reduction in proteinuria (i.e. UPCR).
(§2) Sensitivity is defined as the probability that a subject showing PR at 48 weeks would have shown a favorable result with regard to the marker at the designated early time point. In the tables below, this is the ratio of the number of subjects with favorable marker results (early drop or normalization) to the total subjects with 48 week PR.
(§3) Specificity is defined as the probability that a subject not showing PR at 48 weeks would have shown an unfavorable result with regard to the marker at the designated early time point. In the tables below, this is the ratio of the number of subjects with unfavorable marker results (no early drop or no normalization) to the total subjects with no 48 week PR.
(§4) Positive predictive value is defined as the probability that a subject showing a favorable result with respect to the marker at an earlier time point would show PR at 48 weeks. In the tables below, this is the ratio of the number of subjects with favorable marker results who have 48 week PR to those with favorable marker results (early reduction or yes column).
(§5) Negative predictive value is defined as the probability that a subject showing an unfavorable result with respect to the marker at an earlier time point would not show PR at 48 weeks. In the tables below, this is the ratio of the number of subjects with unfavorable marker results who have no PR at 48 weeks to the total subjects with unfavorable marker results (no early reduction or no column).
Another criterion for effectiveness is normalization of C3 and/or C4 concentration in blood. The normal concentration of C3 is 90 mg/dl or greater and for C4 16 mg/dl or greater.

lupus nephritis [3] = test: Predictability from early reduction in UPCR or C3/C4 normalization combined at 12 weeks (Tables 13-17); details: number of patients
Source text: as §1, §2, §3, §4
as §5, with “column). […]” for “column).”

[4] = 24 weeks, High Dose (39.5 mg BID)
[5] = 24 weeks, Low Dose (23.7 mg BID)
[6] = 48 weeks, High Dose (39.5 mg BID)
[7] = 48 weeks, Low Dose (23.7 mg BID)
[8] = patients with dose reductions (pharmacodynamically dosed), High Dose (39.5 mg BID)
[9] = patients with dose reductions (pharmacodynamically dosed), Low Dose (23.7 mg BID)
[10] = patients with no dose reductions, High Dose (39.5 mg BID)
[11] = patients with no dose reductions, Low Dose (23.7 mg BID)
[12] = Early 25% reduction in UPCR or C3/C4 normalization, Week 12, 23.7 mg BID
[13] = Early 25% reduction in UPCR or C3/C4 normalization, Week 12, 39.5 mg BID
[14] = Early 25% reduction in UPCR or C3/C4 normalization, Week 24, 23.7 mg BID
[15] = Early 25% reduction in UPCR or C3/C4 normalization, Week 48, 23.7 mg BID
[16] = Early 30% reduction in UPCR or C3/C4 normalization, Week 12, 23.7 mg BID
[17] = Early 30% reduction in UPCR or C3/C4 normalization, Week 12, 39.5 mg BID

## C=C/C=C/C[C@@H](C)[C@@H](O)[C@H]1C(=O)N[C@@H](CC)C(=O)N(C)CC(=O)N(C)[C@@H](CC(C)C)C(=O)N[C@@H](C(C)C)C(=O)N(C)[C@@H](CC(C)C)C(=O)N[C@@H](C)C(=O)N[C@H](C)C(=O)N(C)[C@@H](CC(C)C)C(=O)N(C)[C@@H](CC(C)C)C(=O)N(C)[C@@H](C(C)C)C(=O)N1C [voclosporin]
Lupus nephritis [1]; [4]
  Patients with Dose Reduction: 47 (53.4) n(%)
  Patients with no Dose Reduction: 41 (46.6) n(%)
Lupus nephritis [1]; [5]
  Patients with Dose Reduction: 39 (43.8) n(%)
  Patients with no Dose Reduction: 50 (56.2) n(%)
Lupus nephritis [1]; [6]
  Patients with Dose Reduction: 53 (60.2) n(%)
  Patients with no Dose Reduction: 35 (39.8) n(%)
Lupus nephritis [1]; [7]
  Patients with Dose Reduction: 46 (51.7) n(%)
  Patients with no Dose Reduction: 43 (48.3) n(%)
Lupus nephritis [1]; [8]
  Patients with CR at 24 weeks: 13 (27.7) n(%)
  Patients with CR at 48 weeks: 24 (45.3) n(%)
  Patients with PR at 24 weeks: 34 (72.3) n(%)
  Patients with PR at 48 weeks: 41 (77.4) n(%)
Lupus nephritis [1]; [9]
  Patients with CR at 24 weeks: 14 (35.9) n(%)
  Patients with CR at 48 weeks: 24 (52.2) n(%)
  Patients with PR at 24 weeks: 28 (71.8) n(%)
  Patients with PR at 48 weeks: 35 (76.1) n(%)
Lupus nephritis [1]; [10]
  Patients with CR at 24 weeks: 11 (26.8) n(%)
  Patients with CR at 48 weeks: 11 (31.4) n(%)
  Patients with PR at 24 weeks: 24 (58.5) n(%)
  Patients with PR at 48 weeks: 22 (62.9) n(%)
Lupus nephritis [1]; [11]
  Patients with CR at 24 weeks: 15 (30.0) n(%)
  Patients with CR at 48 weeks: 20 (46.5) n(%)
  Patients with PR at 24 weeks: 34 (68.0) n(%)
  Patients with PR at 48 weeks: 26 (60.5) n(%)
Lupus nephritis [2]; week 12, 23.7 mg BID
  No Week 48 Partial Remission No Normalization: 10
  No Week 48 Partial Remission Normalization: 8
  Normalization Yes: 31
Lupus nephritis [2]; week 12, 39.5 mg BID
  No Week 48 Partial Remission No Normalization: 10
  No Week 48 Partial Remission Normalization: 7
Lupus nephritis [2]; week 24, 23.7 mg BID
  No Week 48 Partial Remission No Normalization: 8
  Normalization Yes: 30
  Week 48 Partial Remission No Normalization: 33
Lupus nephritis [2]; week 48, 23.7 mg BID
  No Week 48 Partial Remission No Normalization: 8
  No Week 48 Partial Remission Normalization: 2
  Normalization Yes: 27
Lupus nephritis [2]; week 48, 39.5 mg BID
  No Week 48 Partial Remission No Normalization: 9
  No Week 48 Partial Remission Normalization: 7
Lupus nephritis [3]; [12]
  No Week 48 Partial Remission, No Early Drop or Normal: 3
  Week 48 Partial Remission, No Early Drop or Normal: 2
Lupus nephritis [3]; [13]
  No Week 48 Partial Remission, No Early Drop or Normal: 3
  Week 48 Partial Remission, No Early Drop or Normal: 3
Lupus nephritis [3]; [14]
  Early Drop or Normal No: 1
  No Week 48 Partial Remission, No Early Drop or Normal: 1
Lupus nephritis [3]; Early 25% reduction in UPCR or C3/C4 normalization, Week 24, 39.5 mg BID
  Early Drop or Normal No: 10
Lupus nephritis [3]; [15]
  Early Drop or Normal No: 1
  No Week 48 Partial Remission, Early Drop or Normal: 10
  No Week 48 Partial Remission, No Early Drop or Normal: 1
Lupus nephritis [3]; Early 25% reduction in UPCR or C3/C4 normalization, Week 48, 39.5 mg BID
  No Week 48 Partial Remission, Early Drop or Normal: 10
Lupus nephritis [3]; [16]
  No Week 48 Partial Remission, No Early Drop or Normal: 3
  Week 48 Partial Remission, No Early Drop or Normal: 2
Lupus nephritis [3]; [17]
  Early Drop or Normal No: 7
  No Week 48 Partial Remission, No Early Drop or Normal: 3
  Week 48 Partial Remission, No Early Drop or Normal: 4
